# Data taken from article PMC4021201, “Repositioning: the fast track to new anti-malarial medicines?” (Malaria Journal, 2014).
# Starred links: 1 amine or outer side, 2 acyl side, 3 side chain; linkers in the order of their positions; H or OH if unused. Positions of bridges follow the written chain, without caps; N, C: chain ends. Non-standard residues stand in square brackets, D forms with d. Residues, ends and D or L forms follow the SMILES beside them. Chains are numbered I, II in the order given. Actinocin(9to1) = Cc1c2oc3c(C)ccc(C(=O)[*:1])c3nc-2c(C(=O)[*:2])c(N)c1=O; NMeV = CN[C@H](C(=O)O)C(C)C; Sar = CNCC(=O)O
# Tests used:
# P. falciparum K1 [1] = assay: SYBR I dye DNA staining assay (Pfizer), P. falciparum K1
# Description: (§1) Cultures of P. falciparum 3D7 and K1 (both from David Baker, LSHTM) were maintained in O+ human erythrocytes (Research Red Cells and Blood Transfusion Service). 384-well assay plates contained 250 nL of compound at a serial dilution of 1:3 in 100% DMSO, starting from 200 µM (in the plate i.e. 20 µM final) and minimum and maximum controls. After addition of 50 μL of infected erythrocytes per well, plates were incubated at 37°C for three days in 5% CO2, 5% O2 and 90% N2. […] Percent anti-malarial activity was calculated relative to the minimum and maximum controls for each of the 11 drug concentrations and EC50 values determined from the resulting data plot.
# P. falciparum 3D7 [2] = assay: SYBR I dye DNA staining assay (Pfizer), P. falciparum 3D7
# Description: as §1
# P. falciparum K1 [3] = assay: SYBR I dye DNA staining assay (SJCRH), P. falciparum K1; conditions: read-out: EC50 K1
# Description: (§2) SJCRH used the SYBR® I dye DNA staining assay, which measures proliferation of P. falciparum in human erythrocytes [27]. Plasmodium falciparum strains 3D7 (chloroquine-sensitive) and K1 (chloroquine-resistant) (American Type Culture Collection [ATCC], Manassas, VA, USA) were maintained using established methods [28]. The assay method is as previously described [29]. […] EC50 values were calculated with the robust investigation of screening experiments (RISE) algorithm with a four-parameter logistic equation.
# (§3) This group used the SYBR® I dye DNA staining assay, which measures proliferation of P. falciparum in human erythrocytes [1]. Plasmodium falciparum strains 3D7 (chloroquine-sensitive) and K1 (chloroquine-resistant) (American Type Culture Collection [ATCC], Manassas, VA) were maintained in group O? erythrocytes (Key Biologics, LLC, Memphis, TN) using established methods [2]. Serial dilutions of the test compound in DMSO were prepared to provide 10 concentrations for each compound. […] After addition of 10 µL mixed DNA dye solution in PBS per test well (10× SYBR® I, [Invitrogen, Carlsbad, CA]), 0.5% [vol/vol] Triton X-100, 0.5 mg/mL saponin), plates were shaken for 1 min at 750 rpm and incubated in the dark for 90 min. Fluorescence was measured with an EnVision®spectrophotometer (PerkinElmer, Waltham, MA) [3]. […] EC50 values were calculated with the robust investigation of screening experiments (RISE) algorithm with a four-parameter logistic equation.
# P. falciparum 3D7 [4] = assay: SYBR I dye DNA staining assay (SJCRH), P. falciparum 3D7; conditions: read-out: EC50 3D7
# Description: as §2, §3
# [5] = parameters: method as in unpublished data provided by Pfizer Inc; conditions: ref unpublished data provided by Pfizer Inc; cited from earlier work
# [6] = Pharmacokinetics in P. falciparum-infected humanized mice; conditions: for Cmax / Tmax: NOD-scid IL-2Rγ^null, mouse; for Cmax / Tmax / AUC (0–t): whole blood; for DNAUC(0–t): dose-normalized AUC(0–t); for DNAUC(0–t) / AUC (0–t): mean (SD)
# Description: The pharmacokinetics of compounds after oral administration was determined concurrently in the same mice used for the therapeutic efficacy assay. Samples were taken at 0.25, 0.5, 1, 3, 6, 8, and 24 hours after the first dose. Compound levels were measured in 25 μL blood samples that were mixed with 25 μL of saponin (0.1% in water) and processed under standard liquid–liquid extraction conditions [39]. Pharmacokinetic parameters were calculated using WinNonlin 5.2 non-compartmental analysis.
# [7] = system: P. falciparum Pf3D7^0087/N9; assay: Plasmodium falciparum huSCID humanized mouse model, four-day test; conditions: for reduction of parasitaemia versus vehicle: 10, 30 mg/kg sc target doses, up to maximum tolerated dose; for ED90: parasitaemia at day 7 after infection, once daily for four days, mean (95% CI)
# Description: In vivo testing using this model was performed by GSK at Tres Cantos, against P. falciparum 3D7 (in vivo strain Pf3D7^0087/N9generated by GSK using Pf3D7 obtained from Eduardo Dei-Cas, Institute Pasteur, Lille, France [36]) growing in peripheral blood of female NOD-scid IL-2Rγ^null mice engrafted with human erythrocytes, i e, a ‘humanized’ mouse model, following published protocols [36, 37]. Briefly, animals were infected intravenously with 20×10^6 infected erythrocytes on day 0. […] Dosing was initiated at the maximum tolerated dose in mice on day 3 after infection and continued once daily for four days. Each experimental group was n = 3 mice unless otherwise stated. Control animals received vehicle only and a quality control assay used chloroquine at target doses of 3 mg/kg and 7 mg/kg. Venous blood samples for parasitology (2 μL) were taken at days 3, 5, and 7 after infection. Anti-malarial efficacy was assessed using a standard four-day test (i e, at day 7) and blood parasitaemia was measured by fluorescence-activated cell sorting (FACS) analysis [38]. The limit of detection (per cent of P. falciparum) was 0.01%. The number of parasites ×10^6 cells was recorded and data were analysed by non-linear fitting to a logistic equation of log10 (per cent parasitaemia at day 7 after infection) versus the dose level administered.
# Per cent parasitaemia at day 7 after infection in treated versus control animals was analysed using a one factor ANOVA with Tukey’s post-test analysis. […] ED90 was calculated similarly. Analysis was performed using WinNonlin 5.2 and GraphPad Prism 5.0.
# [8] = system: P. falciparum 3D7A strain; assay: Whole-cell [3H] hypoxanthine incorporation assay (GSK); assay type: cell-based, Plasmodium falciparum; conditions: mean of three independent measures
# Description: GSK Tres Cantos used a whole-cell [^3H] hypoxanthine radioisotope incorporation assay to determine per cent parasite inhibition at 48 hours and 96 hours. Plasmodium falciparum 3D7A strain (Malaria Research and Reference Reagent Resource Center MR4; [32]) was maintained as described previously. Parasite growth inhibition assays and EC50 determination were carried out following standard methods. Three independent experiments were conducted for each time duration and test compound.
# GlaxoSmithKline, Tres Cantos. A whole-cell [^3H]hypoxanthine radioisotope incorporation assay was performed to determine percent parasite inhibition at 48 h and 96 h. Plasmodium falciparum 3D7A strain (Malaria Research and Reference Reagent Resource Center MR4; http://www.mr4.org), was maintained in human erythrocytes (Transfusions Blood Bank, Madrid) with Albumax II medium, as previously described. Parasite growth inhibition assays and EC50 determination were carried out following standard methods. Briefly, cultures with 0.5% parasitemia and 2.5% hematocrit were incubated with the 2 μM of test drug for 48 h or 96 h. [^3H]hypoxanthine (0.8 μCi/mL) in 10 μL of RPMI was added 24 h before parasites were harvested (Cell Harvester 96™, TOMTEC, Hamden, CT). Incorporated radioactivity was quantified with a Wallac MicroBeta® TriLux (Model 1450 LS, PerkinElmer). Three independent experiments were conducted for each time duration and test compound.
# [9] = Plasmodium falciparum, K1, 72 h
# [10] = Plasmodium falciparum, 3D7, 72 h
# [11] = target dose 10 mg/kg subcutaneous (experimental 6.4 CEP-701, 8.3 CEP-1347)
# [12] = target dose 30 mg/kg subcutaneous (experimental 15.0 CEP-701, 22.0 CEP-1347)
# [13] = mean (95% CI), SYBR I fluorescence assay, chloroquine-resistant strain, 72 h
# [14] = mean (95% CI), SYBR I fluorescence assay, chloroquine-sensitive strain, 72 h
# [15] = target dose 50 mg/kg oral (experimental 36 mg/kg)
smiles,measurement,setting,value
CCNCc1cncc(-c2ccc3[nH]nc(-c4nc5c(F)cc(F)cc5[nH]4)c3c2)c1C [AG-024322],EC50,"P. falciparum K1 [1]; read-out: EC50 K1, mean (95% CI), Pfizer SYBR I fluorescence assay",400 nM
same,EC50,"P. falciparum 3D7 [2]; read-out: EC50 3D7, mean (95% CI), Pfizer SYBR I fluorescence assay",700 nM
Nc1nc(N)c2nc(CNc3ccc(C(=O)N[C@@H](CCC(=O)O)C(=O)O)cc3)cnc2n1 [Aminopterin],EC50,P. falciparum K1 [3]; [9],1250 nM
same,EC50,P. falciparum 3D7 [4]; [10],320 nM
CC(C)C[C@H](NC(=O)[C@H](Cc1ccccc1)NC(=O)c1cnccn1)B(O)O [Bortezomib],EC50,P. falciparum K1 [3]; [9],80 nM
same,EC50,P. falciparum 3D7 [4]; [10],20 nM
COc1cc(Nc2c(C#N)cnc3cc(OCCCN4CCN(C)CC4)c(OC)cc23)c(Cl)cc1Cl [Bosutinib],EC50,P. falciparum K1 [3]; [9],650 nM
same,EC50,P. falciparum 3D7 [4]; [10],220 nM
COc1ccc(C(=O)c2cn(C(C)C)c3ncnc(N)c23)cc1NC(=O)Nc1ccc(Cl)cc1Cl [CE-245677],human plasma level with significant central nervous system adverse events,[5],~ 1.5 μM
same,EC50,"P. falciparum K1 [1]; Plasmodium falciparum, K1, read-out: EC50 K1",800 nM
same,EC50,"P. falciparum 3D7 [2]; Plasmodium falciparum, 3D7, read-out: EC50 3D7",1100 nM
CCSCc1ccc2c(c1)c1c3c(c4c5cc(CSCC)ccc5n5c4c1n2[C@H]1C[C@](O)(C(=O)OC)[C@]5(C)O1)CNC3=O [CEP-1347],Cmax,"[6]; sc, 10 mg/kg",830 ng/mL
same,Tmax,"[6]; sc, 10 mg/kg",4.8 h
same,Cmax,"[6]; sc, 30 mg/kg",730 ng/mL
same,Tmax,"[6]; sc, 30 mg/kg",6 h
same,DNAUC(0–t),[6]; [11],0.98 (0.22) μg · h · mL^−1 · day^−1
same,DNAUC(0–t),[6]; [12],0.45 (0.092) μg · h · mL^−1 · day^−1
same,AUC (0–t),[6]; [11],8.1 (1.8) μg · h · mL
same,AUC (0–t),[6]; [12],9.9 (2.1) μg · h · mL
same,reduction of parasitaemia versus vehicle,[7],did not reach statistical significance
CC(=O)[C@@]1(O)CC[C@H]2[C@@H]3C=C(Cl)C4=CC(=O)[C@@H]5C[C@@H]5[C@]4(C)[C@H]3CC[C@@]21C [Cyproterone],EC50,P. falciparum K1 [3]; [13],890 nM
same,EC50,P. falciparum 3D7 [4]; [14],560 nM
"Cc1c2oc3c(C)ccc(C(=O)N[C@@H]4C(=O)N[C@H](C(C)C)C(=O)N5CCC[C@H]5C(=O)N(C)CC(=O)N(C)[C@@H](C(C)C)C(=O)O[C@@H]4C)c3nc-2c(C(=O)N[C@@H]2C(=O)N[C@H](C(C)C)C(=O)N3CCC[C@H]3C(=O)N(C)CC(=O)N(C)[C@@H](C(C)C)C(=O)O[C@@H]2C)c(N)c1=O [Dactinomycin] (I: T[dV]P[Sar][NMeV] / II: T[dV]P[Sar][NMeV]; ester I:1-I:C, II:1-II:C; linker I:N-II:N via Actinocin(9to1))",EC50,P. falciparum K1 [3]; [9],1 nM
same,EC50,P. falciparum 3D7 [4]; [10],0.9 nM
CN(CCCCCCCCCCN(C)C(=O)Oc1cccc([N+](C)(C)C)c1)C(=O)Oc1cccc([N+](C)(C)C)c1 [Demecarium],EC50,P. falciparum K1 [3]; [9],300 nM
same,EC50,P. falciparum 3D7 [4]; [10],510 nM
Cc1cc(N)c2ccccc2[n+]1CCCCCCCCCC[n+]1c(C)cc(N)c2ccccc21 [Dequalinium],EC50,P. falciparum K1 [3]; [9],60 nM
same,EC50,P. falciparum 3D7 [4]; [10],60 nM
Cc1c(N(C)CS(=O)(=O)O)c(=O)n(-c2ccccc2)n1C [Dipyrone],EC50,P. falciparum K1 [3]; [13],500 nM
same,EC50,P. falciparum 3D7 [4]; [14],840 nM
COc1cccc2c1C(=O)c1c(O)c3c(c(O)c1C2=O)C[C@@](O)(C(=O)CO)C[C@@H]3O[C@H]1C[C@H](N)[C@H](O)[C@H](C)O1 [Doxorubicin],EC50,P. falciparum K1 [3]; [9],200 nM
same,EC50,P. falciparum 3D7 [4]; [10],210 nM
CS(=O)(=O)CCNCc1ccc(-c2ccc3ncnc(Nc4ccc(OCc5cccc(F)c5)c(Cl)c4)c3c2)o1 [Lapatinib],EC50,P. falciparum K1 [3]; [9],> 7370 nM
same,EC50,P. falciparum 3D7 [4]; [10],560 nM
C[C@]12O[C@H](C[C@]1(O)CO)n1c3ccccc3c3c4c(c5c6ccccc6n2c5c31)CNC4=O [Lestaurtinib],EC50,P. falciparum K1 [3]; [9],340 nM
same,EC50,P. falciparum 3D7 [4]; [10],490 nM
same,Cmax,"[6]; sc, 10 mg/kg",630 ng/mL
same,Tmax,"[6]; sc, 10 mg/kg",0.78 h
same,Cmax,"[6]; sc, 30 mg/kg",2800 ng/mL
same,Tmax,"[6]; sc, 30 mg/kg",4 h
same,DNAUC(0–t),[6]; [11],0.44 (0.072) μg · h · mL^−1 · day^−1
same,DNAUC(0–t),[6]; [12],1.6 (0.47) μg · h · mL^−1 · day^−1
same,AUC (0–t),[6]; [11],2.8 (0.46) μg · h · mL
same,AUC (0–t),[6]; [12],23.8 (6.8) μg · h · mL
same,reduction of parasitaemia versus vehicle,[7],did not reach statistical significance
CC[C@@]1(O)C(=O)OCc2c1cc1n(c2=O)Cc2c-1nc1cc3c(cc1c2CN1CCN(C)CC1)OCCO3 [Lurtotecan],IC50,[8]; Plasmodium falciparum,191 ± 62 nM
CN(Cc1cnc2nc(N)nc(N)c2n1)c1ccc(C(=O)N[C@@H](CCC(=O)O)C(=O)O)cc1 [Methotrexate],EC50,P. falciparum K1 [3]; [9],20 nM
same,EC50,P. falciparum 3D7 [4]; [10],10 nM
CN(C)c1ccc2nc3ccc(=[N+](C)C)cc-3sc2c1 [Methylene blue],EC50,P. falciparum K1 [3]; [9],< 0.3 nM
same,EC50,P. falciparum 3D7 [4]; [10],< 0.3 nM
CO[C@@H]1[C@H](N(C)C(=O)c2ccccc2)C[C@H]2O[C@]1(C)n1c3ccccc3c3c4c(c5c6ccccc6n2c5c31)C(=O)NC4 [Midostaurin],EC50,P. falciparum 3D7 [4]; [10],350 nM
CO[C@@]12[C@H](COC(N)=O)C3=C(C(=O)C(C)=C(N)C3=O)N1C[C@@H]1N[C@@H]12 [Mitomycin],EC50,P. falciparum K1 [3]; [9],510 nM
same,EC50,P. falciparum 3D7 [4]; [10],970 nM
"C/C=C/C[C@@H](C)C(=O)[C@H]1C(=O)N[C@@H](C(C)C)C(=O)N(C)CC(=O)N(C)[C@@H](CC(C)C)C(=O)N[C@@H](C(C)C)C(=O)N(C)[C@@H](CC(C)C)C(=O)N[C@@H](C)C(=O)N[C@H](C)C(=O)N(C)[C@@H](CC(C)C)C(=O)N(C)[C@@H](CC(C)C)C(=O)N(C)[C@@H](C(C)C)C(=O)N1C [PSC-833, valspodar]",Cmax,"[6]; po, 50 mg/kg",1390 ng/mL
same,Tmax,"[6]; po, 50 mg/kg",3.3 h
same,Cmax,"[6]; po, 100 mg/kg",1010 ng/mL
same,Tmax,"[6]; po, 100 mg/kg",5.33 h
same,Cmax,"[6]; po, 200 mg/kg",910 ng/mL
same,Tmax,"[6]; po, 200 mg/kg",2 h
same,DNAUC(0–t),[6]; [15],0.36 (0.082) μg · h · mL^−1 · day^−1
same,DNAUC(0–t),[6]; target dose 100 mg/kg oral,0.13 (0.04) μg · h · mL^−1 · day^−1
same,DNAUC(0–t),[6]; target dose 200 mg/kg oral,0.065 (0.03) μg · h · mL^−1 · day^−1
same,AUC (0–t),[6]; [15],12.90 (2.97) μg · h · mL
same,AUC (0–t),[6]; target dose 100 mg/kg oral,12.26 (4.25) μg · h · mL
same,AUC (0–t),[6]; target dose 200 mg/kg oral,13.05 (6.05) μg · h · mL
same,AUCED90,[7]; blood exposure needed to inhibit parasitaemia at day 7 by 90% vs vehicle,>17.33 μg · h · mL^−1 · day^−1
same,ED90,[7],>200 mg/kg
same,ED90,[7]; listed as Valspodar,> 200 mg/kg
N=C(N)c1ccc(OCCCCCOc2ccc(C(=N)N)cc2)cc1 [Pentamidine],EC50,P. falciparum K1 [3]; [9],50 nM
same,EC50,P. falciparum 3D7 [4]; [10],220 nM
O=c1[nH]c2ccccc2n1C1CCN(CCCC(c2ccc(F)cc2)c2ccc(F)cc2)CC1 [Pimozide],EC50,P. falciparum K1 [3]; [9],> 12800 nM
same,EC50,P. falciparum 3D7 [4]; [10],700 nM
COc1ccc(OC)c(Cc2cnc3nc(N)nc(N)c3c2C)c1 [Piritrexim],IC50,[8]; Plasmodium falciparum,11 ± 1 nM
CC[C@H](C)C(=O)O[C@H]1C[C@H](O)C=C2C=C[C@H](C)[C@H](CC[C@@H](O)C[C@@H](O)CC(=O)O)[C@H]21 [Pravastatin],EC50,P. falciparum K1 [3]; [9],120 nM
same,EC50,P. falciparum 3D7 [4]; [10],750 nM
CCCNCC(O)COc1ccccc1C(=O)CCc1ccccc1 (stereo not drawn) [Propafenone],EC50,P. falciparum K1 [3]; [9],330 nM
same,EC50,P. falciparum 3D7 [4]; [10],1220 nM
CCN(CC)CCN(Cc1ccc(-c2ccc(C(F)(F)F)cc2)cc1)C(=O)Cn1cc(Cc2cnn(C)c2)c(=O)nc1SCc1ccc(F)cc1 [SB-435495],IC50,[8],1130 ± 146 nM
CNC(=O)c1cc(Oc2ccc(NC(=O)Nc3ccc(Cl)c(C(F)(F)F)c3)cc2)ccn1 [Sorafenib],EC50,P. falciparum K1 [3]; [9],880 nM
same,EC50,P. falciparum 3D7 [4]; [10],2710 nM
Cc1ccnc(NS(=O)(=O)c2ccc(N)cc2)n1 [Sulfamerazine],EC50,P. falciparum K1 [3]; [9],10 nM
same,EC50,P. falciparum 3D7 [4]; [10],10 nM
CN1CCN(CC/C=C2/c3ccccc3Sc3ccc(S(=O)(=O)N(C)C)cc32)CC1 [Thiothixene],EC50,P. falciparum K1 [3]; [9],20 nM
same,EC50,P. falciparum 3D7 [4]; [10],40 nM
